# Measured values: patent US7381724B2, “Optically active 5H-pyrrolo[3,4-b]pyrazine derivative, its preparation and pharmaceutical compositions containing same” (Sepracor Inc., priority 1991, dated 2008)
# Key:
# [1] = tested on: central benzodiazepine receptor sites; assay: test of affinity for central benzodiazepine receptor sites; assay type: binding; details: relative to racemic zopiclone; technique of Blanchard and Julou
# [2] = tested on: pentetrazol-induced convulsions; assay: test of antagonist activity with respect to pentetrazol-induced convulsions; assay type: in vivo; details: relative to racemic zopiclone; technique of Everett and Richards
# [3] = tested on: animals; assay: pharmacological properties in animals; assay type: in vivo
# [4] = tested on: writhing reflex; assay: writhing reflex test in mice; assay type: in vivo; details: relative to racemic zopiclone, technique of Zbinden and Randall
# [5] = tested on: mice; assay: acute oral toxicity (LD50) in mice; details: for toxicity compared with the racemate: relative to racemic zopiclone
# [6] = acute oral toxicity (LD50) in mice; details: mouse, in vivo, po
SMILES,"potency of action, affinity for central benzodiazepine receptor sites [1]","potency of action, antagonist activity with respect to pentetrazol-induced convulsions [2]",properties displayed in animals [3],"potency of action, writhing reflex test [4]",toxicity (LD50) ([5]; administered orally to mice) [g/kg],toxicity compared with the racemate [5],LD50 [6] [mg/kg]
"CN1CCN(C(=O)O[C@H]2c3nccnc3C(=O)N2c2ccc(Cl)cn2)CC1 (single isomer, unassigned) [dextrorotatory isomer]",approximately twice as active,approximately twice as active,"hypnotic, sedative, anxiolytic, muscle-relaxant and anticonvulsant properties",approximately twice as active,~1.5,lower toxicity than that of the racemate,
"CN1CCN(C(=O)O[C@@H]2c3nccnc3C(=O)N2c2ccc(Cl)cn2)CC1 (single isomer, unassigned) [laevorotatory isomer, reference compound]",almost inactive,almost inactive,,almost inactive,,more toxic than the racemate,
"CN1CCN(C(=O)OC2c3nccnc3C(=O)N2c2ccc(Cl)cn2)CC1 (racemic) [zopiclone, 6-(5-chloro-2-pyridyl)-5-[(4-methyl-1-piperazinyl)carbonyloxy]-7-oxo-6,7-dihydro-5H-pyrrolo[3,4-b]pyrazine, reference compound]",,,,,,,~850
